{"source": "patent US11845759B2", "about": "“Opioid compounds and uses thereof” (priority 2018, dated 2023)", "key": {"[1]": {"test": "Hydrolysis in pH buffer/EtOH solutions", "format": "physicochemical", "details": "6-OAc-Oxy"}, "[2]": {"test": "Hydrolysis in HCl solutions", "format": "physicochemical", "details": "6-OAc-Oxy"}, "μ-opioid receptor [3]": {"target": "T1, μ-opioid receptor (Homo sapiens (Human), UniProt P35372)", "format": "binding"}, "μ-opioid receptor [4]": {"target": "T1, μ-opioid receptor", "test": "[35S]GTPγS μ-opioid receptor functional assay", "format": "biochemical"}, "[5]": {"test": "Hydrolysis in human blood serum at 37° C.", "details": "for 6-OAc-Oxy (%): 6-OAc-Oxy in human blood serum, 37° C."}, "[6]": {"test": "Hydrolysis in simulated gastric fluid at 37° C.", "details": "6-OAc-Oxy in simulated Gastric fluid"}, "[7]": {"test": "Hydrolysis in simulated intestinal fluid at 37° C.", "details": "for 6-OAc-Oxy (%): 6-OAc-Oxy in simulated intestinal fluid, 37° C."}, "[8]": {"details": "pH = 7 buffer (1:1 EtOH:H2O), 0 hrs"}, "[9]": {"details": "pH = 7 buffer (1:1 EtOH:H2O), 0.5 hrs"}, "[10]": {"details": "pH = 7 buffer (1:1 EtOH:H2O), 2 hrs"}, "[11]": {"details": "pH = 7 buffer (1:1 EtOH:H2O), 26 hrs"}, "[12]": {"details": "pH = 8 buffer (1:1 EtOH:H2O), 0 hrs"}, "[13]": {"details": "pH = 8 buffer (1:1 EtOH:H2O), 0.5 hrs"}, "[14]": {"details": "pH = 8 buffer (1:1 EtOH:H2O), 2 hrs"}, "[15]": {"details": "pH = 8 buffer (1:1 EtOH:H2O), 26 hrs"}, "[16]": {"details": "pH = 9 buffer (1:1 EtOH:H2O), 0 hrs"}, "[17]": {"details": "pH = 9 buffer (1:1 EtOH:H2O), 0.5 hrs"}, "[18]": {"details": "pH = 9 buffer (1:1 EtOH:H2O), 4 hrs"}, "[19]": {"details": "pH = 9 buffer (1:1 EtOH:H2O), 8 hrs"}, "[20]": {"details": "pH = 9 buffer (1:1 EtOH:H2O), 22 hrs"}, "[21]": {"details": "pH = 10 buffer (1:1 EtOH:H2O), 0 hrs"}, "[22]": {"details": "pH = 10 buffer (1:1 EtOH:H2O), 0.5 hrs"}, "[23]": {"details": "pH = 10 buffer (1:1 EtOH:H2O), 2 hrs"}, "[24]": {"details": "pH = 10 buffer (1:1 EtOH:H2O), 4 hrs"}, "[25]": {"details": "pH = 11 buffer (1:1 EtOH:H2O), 0 hrs"}, "[26]": {"details": "pH = 11 buffer (1:1 EtOH:H2O), 0.5 hrs"}}, "data": [{"smiles": "COc1ccc2c3c1OC1C(OC(C)=O)=CC[C@@]4(O)[C@@H](C2)N(C)CC[C@]314", "note": "(some centres unmarked) [6-acetyl oxycodone]", "values": [{"measurement": "6-OAc-Oxy (%)", "setting": "[1]; [8]", "value": 89.4, "unit": "%"}, {"measurement": "Oxy (%)", "setting": "[1]; [8]", "value": 9.4, "unit": "%"}, {"measurement": "6-OAc-Oxy (%)", "setting": "[1]; [9]", "value": 87.2, "unit": "%"}, {"measurement": "Oxy (%)", "setting": "[1]; [9]", "value": 9.5, "unit": "%"}, {"measurement": "6-OAc-Oxy (%)", "setting": "[1]; [10]", "value": 87.9, "unit": "%"}, {"measurement": "Oxy (%)", "setting": "[1]; [10]", "value": 8.2, "unit": "%"}, {"measurement": "6-OAc-Oxy (%)", "setting": "[1]; [11]", "value": 77.9, "unit": "%"}, {"measurement": "Oxy (%)", "setting": "[1]; [11]", "value": 12.9, "unit": "%"}, {"measurement": "6-OAc-Oxy (%)", "setting": "[1]; [12]", "value": 89.4, "unit": "%"}, {"measurement": "Oxy (%)", "setting": "[1]; [12]", "value": 9.4, "unit": "%"}, {"measurement": "6-OAc-Oxy (%)", "setting": "[1]; [13]", "value": 87.4, "unit": "%"}, {"measurement": "Oxy (%)", "setting": "[1]; [13]", "value": 10.4, "unit": "%"}, {"measurement": "6-OAc-Oxy (%)", "setting": "[1]; [14]", "value": 87.0, "unit": "%"}, {"measurement": "Oxy (%)", "setting": "[1]; [14]", "value": 8.8, "unit": "%"}, {"measurement": "6-OAc-Oxy (%)", "setting": "[1]; [15]", "value": 75.3, "unit": "%"}, {"measurement": "Oxy (%)", "setting": "[1]; [15]", "value": 20.9, "unit": "%"}, {"measurement": "6-OAc-Oxy (%)", "setting": "[1]; [16]", "value": 89.4, "unit": "%"}, {"measurement": "Oxy (%)", "setting": "[1]; [16]", "value": 9.0, "unit": "%"}, {"measurement": "6-OAc-Oxy (%)", "setting": "[1]; [17]", "value": 89.4, "unit": "%"}, {"measurement": "Oxy (%)", "setting": "[1]; [17]", "value": 9.0, "unit": "%"}, {"measurement": "6-OAc-Oxy (%)", "setting": "[1]; [18]", "value": 86.3, "unit": "%"}, {"measurement": "Oxy (%)", "setting": "[1]; [18]", "value": 11.9, "unit": "%"}, {"measurement": "6-OAc-Oxy (%)", "setting": "[1]; [19]", "value": 75.5, "unit": "%"}, {"measurement": "Oxy (%)", "setting": "[1]; [19]", "value": 14.9, "unit": "%"}, {"measurement": "6-OAc-Oxy (%)", "setting": "[1]; [20]", "value": 66.5, "unit": "%"}, {"measurement": "Oxy (%)", "setting": "[1]; [20]", "value": 26.9, "unit": "%"}, {"measurement": "6-OAc-Oxy (%)", "setting": "[1]; [21]", "value": 89.4, "unit": "%"}, {"measurement": "Oxy (%)", "setting": "[1]; [21]", "value": 9.0, "unit": "%"}, {"measurement": "6-OAc-Oxy (%)", "setting": "[1]; [22]", "value": 32.3, "unit": "%"}, {"measurement": "Oxy (%)", "setting": "[1]; [22]", "value": 65.2, "unit": "%"}, {"measurement": "6-OAc-Oxy (%)", "setting": "[1]; [23]", "value": 1.6, "unit": "%"}, {"measurement": "Oxy (%)", "setting": "[1]; [23]", "value": 96.8, "unit": "%"}, {"measurement": "6-OAc-Oxy (%)", "setting": "[1]; [24]", "value": 1.2, "unit": "%"}, {"measurement": "Oxy (%)", "setting": "[1]; [24]", "value": 98.3, "unit": "%"}, {"measurement": "6-OAc-Oxy (%)", "setting": "[1]; [25]", "value": 89.4, "unit": "%"}, {"measurement": "Oxy (%)", "setting": "[1]; [25]", "value": 9.0, "unit": "%"}, {"measurement": "6-OAc-Oxy (%)", "setting": "[1]; [26]", "value": 1.6, "unit": "%"}, {"measurement": "Oxy (%)", "setting": "[1]; [26]", "value": 97.1, "unit": "%"}, {"measurement": "6-OAc-Oxy (%)", "setting": "[2]; 0.1N HCl solution, 0 hrs", "value": 89.4, "unit": "%"}, {"measurement": "6-OAc-Oxy (%)", "setting": "[2]; 0.1N HCl solution, 0.5 hrs", "value": 89.0, "unit": "%"}, {"measurement": "Oxy (%)", "setting": "[2]; 0.1N HCl solution, 0.5 hrs", "value": 6.43, "unit": "%"}, {"measurement": "6-OAc-Oxy (%)", "setting": "[2]; 0.1N HCl solution, 2 hrs", "value": 86.4, "unit": "%"}, {"measurement": "Oxy (%)", "setting": "[2]; 0.1N HCl solution, 2 hrs", "value": 7.8, "unit": "%"}, {"measurement": "6-OAc-Oxy (%)", "setting": "[2]; 0.1N HCl solution, 8 hrs", "value": 86.1, "unit": "%"}, {"measurement": "Oxy (%)", "setting": "[2]; 0.1N HCl solution, 8 hrs", "value": 9.5, "unit": "%"}, {"measurement": "6-OAc-Oxy (%)", "setting": "[2]; 0.1N HCl solution, 24 hrs", "value": 67.3, "unit": "%"}, {"measurement": "Oxy (%)", "setting": "[2]; 0.1N HCl solution, 24 hrs", "value": 30.1, "unit": "%"}, {"measurement": "6-OAc-Oxy (%)", "setting": "[2]; 1N HCl solution, 0 hrs", "value": 89.4, "unit": "%"}, {"measurement": "6-OAc-Oxy (%)", "setting": "[2]; 1N HCl solution, 0.5 hrs", "value": 81.5, "unit": "%"}, {"measurement": "Oxy (%)", "setting": "[2]; 1N HCl solution, 0.5 hrs", "value": 16.6, "unit": "%"}, {"measurement": "6-OAc-Oxy (%)", "setting": "[2]; 1N HCl solution, 2 hrs", "value": 61.0, "unit": "%"}, {"measurement": "Oxy (%)", "setting": "[2]; 1N HCl solution, 2 hrs", "value": 30.3, "unit": "%"}, {"measurement": "6-OAc-Oxy (%)", "setting": "[2]; 1N HCl solution, 4 hrs", "value": 42.0, "unit": "%"}, {"measurement": "Oxy (%)", "setting": "[2]; 1N HCl solution, 4 hrs", "value": 56.4, "unit": "%"}, {"measurement": "6-OAc-Oxy (%)", "setting": "[2]; 1N HCl solution, 8 hrs", "value": 18.2, "unit": "%"}, {"measurement": "Oxy (%)", "setting": "[2]; 1N HCl solution, 8 hrs", "value": 80.8, "unit": "%"}, {"measurement": "6-OAc-Oxy (%)", "setting": "[2]; 1N HCl solution, 24 hrs", "value": 1.7, "unit": "%"}, {"measurement": "Oxy (%)", "setting": "[2]; 1N HCl solution, 24 hrs", "value": 95.3, "unit": "%"}, {"measurement": "Ki", "setting": "μ-opioid receptor [3]", "value": 41, "unit": "nM"}, {"measurement": "Ki compared with that of oxycodone (in words)", "setting": "μ-opioid receptor [3]", "value": "comparable"}, {"measurement": "EC50", "setting": "μ-opioid receptor [4]", "value": 1690, "unit": "nM"}, {"measurement": "% Response Agonist", "setting": "μ-opioid receptor [4]; Conc. 3 μM, criteria ≥± 50%", "value": 62, "unit": "%"}, {"measurement": "6-OAc-Oxy (%)", "setting": "[5]; 0 hrs", "value": 89.4, "unit": "%"}, {"measurement": "6-OAc-Oxy (%)", "setting": "[5]; 0.083 hrs (5 min)", "value": 0.65, "unit": "%"}, {"measurement": "6-OAc-Oxy (%)", "setting": "[5]; 0.5 hrs", "value": 0.39, "unit": "%"}, {"measurement": "hydrolysis in human blood serum (in words)", "setting": "[5]; human blood serum (37° C.)", "value": "hydrolyzed quickly"}, {"measurement": "hydrolysis to oxycodone (in words)", "setting": "[5]; human blood serum (37° C.), five minutes", "value": "mostly hydrolyzed to oxycodone"}, {"measurement": "6-OAc-Oxy (%)", "setting": "[6]; 0 hrs", "value": 89.4, "unit": "%"}, {"measurement": "6-OAc-Oxy (%)", "setting": "[6]; 2 hrs", "value": 68.4, "unit": "%"}, {"measurement": "6-OAc-Oxy (%)", "setting": "[6]; 4 hrs", "value": 66.1, "unit": "%"}, {"measurement": "6-OAc-Oxy (%)", "setting": "[6]; 8 hrs", "value": 58.1, "unit": "%"}, {"measurement": "6-OAc-Oxy (%)", "setting": "[6]; 24 hrs", "value": 46.2, "unit": "%"}, {"measurement": "6-OAc-Oxy (%)", "setting": "[7]; 0 hrs", "value": 89.4, "unit": "%"}, {"measurement": "6-OAc-Oxy (%)", "setting": "[7]; 0.5 hrs", "value": 39.8, "unit": "%"}, {"measurement": "6-OAc-Oxy (%)", "setting": "[7]; 2 hrs", "value": 0.7, "unit": "%"}, {"measurement": "6-OAc-Oxy (%)", "setting": "[7]; 4 hrs", "value": 0.0, "unit": "%"}, {"measurement": "time to hydrolyze releasing oxycodone", "setting": "[7]; mixture in simulated intestinal fluid (37° C., pH 6.8, pancreatine)", "value": "less than 2 hours"}]}]}
